Common to all, as to format: binding
Parameters in all cases: key: No binding of immunoglobulin for the defined peptide variant, detection negative: 0; Binding of immunoglobulin for the defined peptide variant, detection positive: +

Test [1] relates to immunoglobulins in human plasma. Description: Cellulose-immobilized 13-mer peptide variants incubated with human plasma, anti-human IgG-AP detection. Conditions: human plasma as sample, diluted 1:10,000 in blocking buffer, 3 h room temperature. How it is done: (§1) Peptides consisting of 13 amino acids were synthesized by solid phase synthesis (Houghten, 1985) on a cellulose matrix with (βA)(βA) as a spacer group.
(§2) The immobilized peptides were tested for their immunoglobulin binding capability by incubation with human IgG-Fc in a buffered solution and by incubation with human plasma.
(§3) Thus, the peptide variants immobilized on solid phases were washed with T-TBS buffer (136 mM NaCl, 1.6 mM KCl, 0.05% (v/v) Tween 20, 50 mM Tris-HCl, pH 8.0) and subsequently treated with blocking buffers (5% (w/v) saccharose, 4% (w/v) bovine serum albumin in T-TBS). Incubation of the immobilized peptides with IgG-Fc (1 μg/ml) in blocking buffer and human serum (diluted 1:10,000 in blocking buffer) was effected for 3 h at room temperature. For checking the specificity of the binding, buffered serum albumin solution (blocking buffer) without addition was included as a control. Thereafter, the peptide variants immobilized on the solid phases were washed three more times with T-TBS buffer.
(§4) After incubation with alkaline phosphatase-conjugated anti-human IgG antibody (1.2 μg/ml) in blocking buffer, detection of the immunoglobulin binding was effected by means of NBT (nitroblue tetrazolium chloride)/BCIP (5-bromo-4-chloro-3-indolyl phosphate toluidine salt) as a substrate (200 μl of parent solution (18.75 mg/ml NBT and 9.4 mg/ml BCIP in 67% (v/v) DMSO) in 10 ml developing buffer (100 mM Tris-HCl, 100 mM NaCl, 5 mM MgCl2, pH 9.5)).

Test [2] has as its system human IgG-Fc. The test is described as follows: Cellulose-immobilized 13-mer peptide variants incubated with human IgG-Fc, anti-human IgG-AP detection. Conditions: IgG-Fc 1 μg/ml in blocking buffer, 3 h room temperature. The method, then:
as §1, §2, §3, §4

Test [3] concerns serum albumin. The test is described as follows: Cellulose-immobilized 13-mer peptide variants incubated with serum albumin (negative control), anti-human IgG-AP detection. Conditions: blocking buffer without addition, 3 h room temperature. The method, then: as §1, §2, §3, §4

Results on 19 substances are retold here after patent US7205382B2, “Peptides, the production and use thereof for binding immunoglobulins” (Fresenius Medical Care Affina GmbH, priority 2000, dated 2007).

Bridge positions count the residues as written; N and C are the ends. Square brackets hold non-standard residues; d marks the D form. Ends that are not written are not given here. cellulose = not defined here; βAla = NCCC(=O)O

Turning to “07T: cellulose-bound 13-mer variant DCAWHLTELVWCT-(βA)(βA) (DCAWHLTELVWCT-{βAla-βAla-cellulose}; disulfide 2-12 (inferred); not fully specified (N-terminus); printed as DCAWHLTELVWCT-(βA)(βA); reading uncertain)”, the “Result for incubation with human plasma (immunoglobulin binding detection)” value (shortened to “Result for incubation with human plasma”) in test [1] is 0. The “Result for incubation with human IgG-Fc (immunoglobulin binding detection)” value (shortened to “Result for incubation with human IgG-Fc”) in test [2] is listed as 0. Also, the “Result for incubation with serum albumin (immunoglobulin binding detection)” value (shortened to “Result for incubation with serum albumin”) in test [3] was found to be 0.

As to “05S: cellulose-bound 13-mer variant DCAWSLGELVWCT-(βA)(βA) (disulfide 2-12 (inferred); not fully specified (N-terminus, C-terminus); printed as DCAWSLGELVWCT-(βA)(βA); also: cellulose-bound)”, the “Result for incubation with human plasma” value in test [1] is 0. Further, in test [2], the “Result for incubation with human IgG-Fc” value was found to be 0. Also, the “Result for incubation with serum albumin” value in test [3] was determined as 0.

With “06K: cellulose-bound 13-mer variant DCAWHKGELVWCT-(βA)(βA) (DCAWHKGELVWCT-{βAla-βAla-cellulose}; disulfide 2-12 (inferred); not fully specified (N-terminus); printed as DCAWHKGELVWCT-(βA)(βA); reading uncertain)”, the “Result for incubation with human plasma” value in test [1] is “+”. For the same substance, the “Result for incubation with human IgG-Fc” value in test [2] is reported as “+”. Moreover, the “Result for incubation with serum albumin” value in test [3] turned out to be 0.

Consider “01K: cellulose-bound 13-mer variant KCAWHLGELVWCT-(βA)(βA) (KCAWHLGELVWCT-{βAla-βAla-cellulose}; disulfide 2-12 (inferred); reading uncertain; also: printed as KCAWHLGELVWCT-(βA)(βA))”, for which the “Result for incubation with human plasma” value in test [1] is 0. Moreover, the “Result for incubation with human IgG-Fc” value in test [2] is reported as “+”. Moreover, in test [3], the “Result for incubation with serum albumin” value is on record as 0.

In the case of “09T: cellulose-bound 13-mer variant DCAWHLGETVWCT-(βA)(βA) (DCAWHLGETVWCT-{βAla-βAla-cellulose}; disulfide 2-12 (inferred); reading uncertain; also: printed as DCAWHLGETVWCT-(βA)(βA))”, the “Result for incubation with human plasma” value in test [1] came to 0. Also, in test [2], the “Result for incubation with human IgG-Fc” value is 0. The “Result for incubation with serum albumin” value in test [3] amounted to 0.

As to “02K: cellulose-bound 13-mer variant DKAWHLGELVWCT-(βA)(βA) (DKAWHLGELVWCT[βAla][βAla]; not fully specified; printed as DKAWHLGELVWCT-(βA)(βA); also: cellulose-bound)”, in test [1], the “Result for incubation with human plasma” value is reported as 0. Further, the “Result for incubation with human IgG-Fc” value in test [2] turned out to be 0. In addition, the “Result for incubation with serum albumin” value in test [3] is recorded as 0.

Regarding “04I: cellulose-bound 13-mer variant DCAIHLGELVWCT-(βA)(βA) (DCAIHLGELVWCT[βAla][βAla]; disulfide 2-12 (inferred); also: cellulose-bound)”, the “Result for incubation with human plasma” value in test [1] came to 0. Moreover, the “Result for incubation with human IgG-Fc” value in test [2] was “+”. Further, in test [3], the “Result for incubation with serum albumin” value stood at 0.

For “08N: cellulose-bound 13-mer variant DCAWHLGNLVWCT-(βA)(βA) (DCAWHLGNLVWCT-{βAla-βAla-cellulose}; disulfide 2-12 (inferred); not fully specified (N-terminus); printed as DCAWHLGNLVWCT-(βA)(βA); reading uncertain)”, the “Result for incubation with human plasma” value in test [1] was “+”. Further, in test [2], the “Result for incubation with human IgG-Fc” value is given as “+”. Also, the “Result for incubation with serum albumin” value in test [3] worked out at 0.

As for “11S: cellulose-bound 13-mer variant DCAWHLGELVSCT-(βA)(βA)”, the “Result for incubation with human plasma” value in test [1] was found to be 0. Besides, in test [2], the “Result for incubation with human IgG-Fc” value worked out at 0. The “Result for incubation with serum albumin” value in test [3] is listed as 0.

For the substance “06R: cellulose-bound 13-mer variant DCAWHRGELVWCT-(βA)(βA) (DCAWHRGELVWCT-{βAla-βAla-cellulose}; disulfide 2-12 (inferred); not fully specified (N-terminus); printed as DCAWHRGELVWCT-(βA)(βA); reading uncertain)”, the “Result for incubation with human plasma” value in test [1] is “+”. The “Result for incubation with human IgG-Fc” value in test [2] is recorded as “+”. The “Result for incubation with serum albumin” value in test [3] came out at 0.

In the case of “03D: cellulose-bound 13-mer variant DCDWHLGELVWCT-(βA)(βA) (DCDWHLGELVWCT-{βAla-βAla-cellulose}; disulfide 2-12 (inferred); reading uncertain; also: printed as DCDWHLGELVWCT-(βA)(βA))”, the “Result for incubation with human plasma” value in test [1] was 0. For the same substance, in test [2], the “Result for incubation with human IgG-Fc” value worked out at 0. The “Result for incubation with serum albumin” value in test [3] is reported as 0.

Take “03N: cellulose-bound 13-mer variant DCNWHLGELVWCT-(βA)(βA) (DCNWHLGELVWCT-{βAla-βAla-cellulose}; disulfide 2-12 (inferred); reading uncertain; also: printed as DCNWHLGELVWCT-(βA)(βA))”: in test [1], the “Result for incubation with human plasma” value stood at 0. Further, the “Result for incubation with human IgG-Fc” value in test [2] is 0. For the same substance, the “Result for incubation with serum albumin” value in test [3] was 0.

As to “11M: cellulose-bound 13-mer variant DCAWHLGELVMCT-(βA)(βA)”, the “Result for incubation with human plasma” value in test [1] turned out to be 0. Besides, in test [2], the “Result for incubation with human IgG-Fc” value amounted to 0. Moreover, in test [3], the “Result for incubation with serum albumin” value came out at 0.

With “11K: cellulose-bound 13-mer variant DCAWHLGELVKCT-(βA)(βA)”, the “Result for incubation with human plasma” value in test [1] was found to be 0. In addition, in test [2], the “Result for incubation with human IgG-Fc” value was “+”. In addition, the “Result for incubation with serum albumin” value in test [3] is listed as 0.

For “07H: cellulose-bound 13-mer variant DCAWHLHELVWCT-(βA)(βA) (DCAWHLHELVWCT-{βAla-βAla-cellulose}; disulfide 2-12 (inferred); not fully specified (N-terminus); printed as DCAWHLHELVWCT-(βA)(βA); reading uncertain)”, the “Result for incubation with human plasma” value in test [1] came to 0. In addition, the “Result for incubation with human IgG-Fc” value in test [2] turned out to be 0. In addition, the “Result for incubation with serum albumin” value in test [3] is listed as 0.

Regarding “07Q: cellulose-bound 13-mer variant DCAWHLQELVWCT-(βA)(βA) (DCAWHLQELVWCT-{βAla-βAla-cellulose}; disulfide 2-12 (inferred); not fully specified (N-terminus); printed as DCAWHLQELVWCT-(βA)(βA); reading uncertain)”, the “Result for incubation with human plasma” value in test [1] is on record as 0. The “Result for incubation with human IgG-Fc” value in test [2] was found to be 0. The “Result for incubation with serum albumin” value in test [3] worked out at 0.

On to “05F: cellulose-bound 13-mer variant DCAWFLGELVWCT-(βA)(βA) (disulfide 2-12 (inferred); not fully specified (N-terminus, C-terminus); printed as DCAWFLGELVWCT-(βA)(βA); also: cellulose-bound)”, for which the “Result for incubation with human plasma” value in test [1] stood at 0. For the same substance, the “Result for incubation with human IgG-Fc” value in test [2] worked out at 0. In addition, the “Result for incubation with serum albumin” value in test [3] is on record as 0.

As to “09A: cellulose-bound 13-mer variant DCAWHLGEAVWCT-(βA)(βA) (DCAWHLGEAVWCT-{βAla-βAla-cellulose}; disulfide 2-12 (inferred); reading uncertain; also: printed as DCAWHLGEAVWCT-(βA)(βA))”, the “Result for incubation with human plasma” value in test [1] was determined as 0. Further, the “Result for incubation with human IgG-Fc” value in test [2] worked out at 0. Besides, in test [3], the “Result for incubation with serum albumin” value was 0.

Take “08Q: cellulose-bound 13-mer variant DCAWHLGQLVWCT-(βA)(βA) (DCAWHLGQLVWCT-{βAla-βAla-cellulose}; disulfide 2-12 (inferred); reading uncertain; also: printed as DCAWHLGQLVWCT-(βA)(βA))”: the “Result for incubation with human plasma” value in test [1] is on record as “+”. The “Result for incubation with human IgG-Fc” value in test [2] is “+”. For the same substance, the “Result for incubation with serum albumin” value in test [3] is recorded as 0.
